Measured values published in patent publication US20030165864A1, “Genes regulated by DNA methylation in tumor cells” (priority 2001, published 2003).

How the values were obtained:
[1] = test system: HT29 colorectal carcinoma cells; experiment: microarray differential expression in 5-aza-2-deoxycytidine-treated versus untreated HT29 cells; type: cell-based, human; settings: for D.E. (log2): 500 nM, treated vs untreated HT29 cells
Description: Incyte clones represent template sequences derived from the LIFESEQ GOLD assembled human sequence database (Incyte Genomics). In cases where more than one clone was available for a particular template, the 5′-most clone in the template was used on the microarray. The HUMAN GENOME GEM series 1-4 microarrays (Incyte Genomics) contain 37,715 array elements which represent 12,989 annotated clusters and 24,726 unannotated clusters.
To construct microarrays, cDNAs were amplified from bacterial cells using primers complementary to vector sequences flanking the cDNA insert. Thirty cycles of PCR increased the initial quantity of cDNAs from 1-2 ng to a final quantity greater than 5 μg. Amplified cDNAs were then purified using SEPHACRYL-400 columns (APB). Purified cDNAs were immobilized on polymer-coated glass slides. Glass microscope slides (Corning, Corning N.Y.) were cleaned by ultrasound in 0.1% SDS and acetone, with extensive distilled water washes between and after treatments. Glass slides were etched in 4% hydrofluoric acid (VWR Scientific Products, West Chester Pa.), washed thoroughly in distilled water, and coated with 0.05% aminopropyl silane (Sigma Aldrich) in 95% ethanol. Coated slides were cured in a 110° C. oven. cDNAs were applied to the coated glass substrate using a procedure described in U.S. Pat. No. 5,807,522. One microliter of the cDNA at an average concentration of 100 ng/μl was loaded into the open capillary printing element by a high-speed robotic apparatus which then deposited about 5 nl of cDNA per slide.
Microarrays were UV-crosslinked using a STRATALINKER UV-crosslinker (Stratagene), and then washed at room temperature once in 0.2% SDS and three times in distilled water. Non-specific binding sites were blocked by incubation of microarrays in 0.2% casein in phosphate buffered saline (Tropix, Bedford Mass.) for 30 minutes at 60° C. followed by washes in 0.2% SDS and distilled water as before.
HT29 cells were derived from a Grade II adenocarcinoma of the colon obtained from a person. HT29 adenocarcinoma cells (American Type Culture Collection, Manassas Va.) were cultured in McCoy's medium supplemented with 10% fetal bovine serum (Invitrogen) at 37° C. and 5% CO2. Treated cells were exposed to 500 nM 5-aza-2-deoxycytidine (Sigma-Aldrich) 24 hr after passage in complete culture medium. Control cultures were treated in parallel with phosphate buffered saline vehicle. After twenty-four hours, culture medium was replaced with drug-free medium. Control and 5-aza-2-deoxycytidine-treated cells were subcultured at equal densities at 1 and 5 days after the initial treatment, and proliferation was measured at the subsequent time point using a Coulter counter (Beckman Coulter, Fullerton Calif.). Cells were harvested 9 days after the initial treatment.
Cells were harvested and lysed in 1 ml of TRIZOL reagent (5×10^6 cells/ml; Invitrogen). The lysates were vortexed thoroughly and incubated at room temperature for 2-3 minutes and extracted with 0.5 ml chloroform. The extract was mixed, incubated at room temperature for 5 minutes, and centrifuged at 16,000×g for 15 minutes at 4° C. The aqueous layer was collected and an equal volume of isopropanol was added. Samples were mixed, incubated at room temperature for 10 minutes, and centrifuged at 16,000×g for 20 minutes at 4° C. The supernatant was removed and the RNA pellet was washed with 1 ml of 70% ethanol, centrifuged at 16,000×g at 4° C., and resuspended in RNAse-free water. The concentration of the RNA was determined by measuring the optical density at 260 nm.
Poly(A) RNA was prepared using an OLIGOTEX mRNA kit (Qiagen) with the following modifications: OLIGOTEX beads were washed in tubes instead of on spin columns, resuspended in elution buffer, and then loaded onto spin columns to recover mRNA. To obtain maximum yield, the mRNA was eluted twice. […]

HT-29 cells [2] = settings: inhibition parallels induction of IFN responsive genes; cited from earlier work
polyp formation = settings: in combination with a genetic reduction in DNA methyltransferase I activity; cited from earlier work
HT-29 cells [3] = settings: cultured HT-29 cells, colorectal cancer cell line; cited from earlier work
[4] = treated HT29 cells versus untreated cells

Structure (SMILES): Nc1ncn([C@H]2C[C@H](O)[C@@H](CO)O2)c(=O)n1 [5-aza-2-deoxycytidine]
- D.E. (log2) ([1]; SEQ ID NO 1, GAGE-8 [Homo sapiens], harvested 9 days after treatment): 3.45 log2
- D.E. (log2) ([1]; SEQ ID NO 2, GAGE-7B [Homo sapiens]): 2.51 log2
- D.E. (log2) ([1]; SEQ ID NO 3, p27 [Homo sapiens]): 2.08 log2
- D.E. (log2) ([1]; SEQ ID NO 4, MAGE-6 antigen [Homo sapiens]): 1.74 log2
- D.E. (log2) ([1]; SEQ ID NO 5, interferon-inducible protein [Homo sapiens]): 1.62 log2
- D.E. (log2) ([1]; SEQ ID NO 6, MAGE-9 antigen [Homo sapiens]): 1.57 log2
- D.E. (log2) ([1]; SEQ ID NO 7, interferon-inducible peptide precursor [Homo sapiens]): 1.56 log2
- D.E. (log2) ([1]; SEQ ID NO 8, transcription factor ISGF-3 [Homo sapiens]): 1.49 log2
- D.E. (log2) ([1]; SEQ ID NO 9, HLA Class I region, chromosome 6p21.3, section 6/20 [Homo sapiens]): 1.40 log2
- D.E. (log2) ([1]; SEQ ID NO 10, hypothetical protein [Homo sapiens]): 1.33 log2
- D.E. (log2) ([1]; SEQ ID NO 11, GAGE-8 protein [Homo sapiens]): 2.67 log2
- D.E. (log2) ([1]; SEQ ID NO 12, putative tumor antigen [Homo sapiens]): 2.57 log2
- D.E. (log2) ([1]; SEQ ID NO 13, semaphorin B [Mus musculus]): 1.92 log2
- D.E. (log2) ([1]; SEQ ID NO 14, Incyte Unique, Template 213413.1): 2.10 log2
- D.E. (log2) ([1]; SEQ ID NO 15, Incyte Unique, Template 032481.1): 1.76 log2
- D.E. (log2) ([1]; SEQ ID NO 16, HLA Class I region, chromosome 6p21.3 [Homo sapiens]): 1.67 log2
- D.E. (log2) ([1]; SEQ ID NO 17, proline rich synapse associated protein 1 [Rattus norvegicus]): 1.66 log2
- D.E. (log2) ([1]; SEQ ID NO 18, hepatitis C-associated microtubular aggregate protein p44 [Homo sapiens]): 1.53 log2
- D.E. (log2) ([1]; SEQ ID NO 19, S100P calcium-binding protein [Homo sapiens], negative = downregulation): −1.34 log2
- D.E. (log2) ([1]; SEQ ID NO 20, G0S2 protein [Homo sapiens], negative = downregulation): −1.41 log2
- D.E. (log2) ([1]; SEQ ID NO 21, progesterone-induced protein [Oryctolagus cuniculus], negative = downregulation): −1.42 log2
- D.E. (log2) ([1]; SEQ ID NO 22, phosphoenolpyruvate carboxykinase [Homo sapiens], negative = downregulation): −1.72 log2
- D.E. (log2) ([1]; SEQ ID NO 23, unnamed protein product [Homo sapiens], negative = downregulation): −1.74 log2
- D.E. (log2) ([1]; SEQ ID NO 24, cystine/glutamate transporter [Homo sapiens], negative = downregulation): −1.81 log2
- D.E. (log2) ([1]; SEQ ID NO 25, Incyte Unique, Template 200578.1, negative = downregulation): −1.63 log2
- differential expression values of each cDNA (SEQ ID NOs: 1-25) ([1]; treated HT29 cells relative to untreated HT29 cells, up- or downregulation): greater than 2.5 fold
- upregulation of SEQ ID NO: 1 [1, 4]: > 5 fold
- upregulation of SEQ ID NO: 2 [1, 4]: > 5 fold
- upregulation of SEQ ID NO: 4 [1, 4]: > 3 fold
- upregulation of SEQ ID NO: 6 [1, 4]: > 3 fold
- upregulation of SEQ ID NO: 11 [1, 4]: > 5 fold
- upregulation of SEQ ID NO: 12 [1, 4]: > 5 fold
- growth of HT-29 cells in culture (HT-29 cells [2]): inhibits growth
- polyp formation (polyp formation): reduced polyp formation
- gene expression after treatment (HT-29 cells [3]): specific expression of several genes related to interferon (IFN) signaling
